From patent US9403866B2, “Compositions and methods for increasing telomerase activity” (Telomerase Activation Sciences, Inc., priority 2009, dated 2016)

Assays:
SAECs [1] = assay: Long-term replicative capacity of SAECs in continuous culture; type: cell-based, human; conditions: 0.1 μM, 60 days continuous culture
Protocol: SAECs were treated continuously with 0.1 μM of compound 4 in a final concentration of 0.004% ethanol for 60 days in continuous culture. Compound 4 increased the long-term replicative capacity of SAECs by about 2 population doublings (4× increase in calculated cell number).

telomerase = telomerase (Homo sapiens, UniProt O14746); assay: Telomerase activation in short-term liquid culture of human bone marrow-derived CD34+ hematopoietic progenitor cells (gel-TRAP); type: cell-based; conditions: huCD34+ cells, 100 nM, 3 days
Protocol: Human bone marrow-derived CD34+ hematopoietic progenitor cells were obtained from a healthy donor.
Human bone marrow-derived CD34+ hematopoietic progenitor cells were grown in Iscove's Modified Dulbecco's Medium (IMDM) (Invitrogen, CA)+10% fetal bovine serum (FBS) for 3 days in the presence of compound 4 (1 uM, 100 nM, 10 nM), vehicle (1% DMSO), or nothing. Telomerase activity increased by ˜60-70% in the 100 nM compound 4 sample relative to the vehicle control (as assessed by traditional gel-TRAP assay).

huCD34+ cells = assay: Colony formation assay of huCD34+ cells; type: cell-based, human; conditions: 100 nM, 14 days
Protocol: Human hematopoietic progenitor CD34+ cells (healthy donor) were plated into a standard colony formation assay in the presence of compound 4 (100 nM), vehicle (0.1% DMSO), or nothing. After 14 days, hematopoietic colonies were enumerated (CFU-E, […], CFU-GM, and CFU-GEMM). The plates containing compound 4 had 17% more colony forming units than vehicle alone. (Total colony counts were: untreated, 106.5; vehicle-treated, 103.5; compound 4-treated, 121.5)

[2] = test system: wild-type mouse lineage-depleted bone marrow cells; assay: Colony formation assay of wild-type mouse lineage-depleted bone marrow cells; type: cell-based; conditions: 12 days
Protocol: Mouse bone marrow-derived lineage-depleted cells (enriched for hematopoietic stem and progenitor cells but not a pure population) were obtained. Wild-type mouse lineage-depleted bone marrow cells from two separate mice were plated into a standard colony formation assay in the presence of compound 4 (100 nM and 500 nM), vehicle (0.1% DMSO), or nothing. After 12 days, hematopoietic colonies were enumerated (BFU-E, CFU-GM, and CFU-GEMM).

SAECs [3] = assay: Alamar Blue Proliferation Assay in SAECs; type: cell-based, human; conditions: 3 days, 1% DMSO, different concentrations
Protocol: Human SAECs or human fibroblasts were grown in the presence of different concentrations of compound 4 in a final concentration of 1% DMSO in the medium. After 3 days the cells were harvested and proliferation was measured using the Alamar Blue Proliferation Assay.

[4] = test system: mTERT heterozygous mouse lineage-depleted bone marrow cells; assay: Colony formation assay of mTERT heterozygous mouse lineage-depleted bone marrow cells; type: cell-based; conditions: 12 days
Protocol: mTERT heterozygous mouse lineage-depleted bone marrow cells were plated into a standard colony formation assay in the presence of compound 4 (100 nm and 500 nM), vehicle (0.1% DMSO), or nothing. After 12 days, hematopoietic colonies were enumerated (BFU-E, CFU-GM, and CFU-GEMM). Total colony counts were: untreated, 67; vehicle-treated, 64; 100 nM compound 4, 68; and 500 nM compound 4, 77.

Matrigel plugs = assay: Administration to BALB/c mice: total RNA and capillary density in Matrigel plugs; type: in vivo; conditions: 10 mg/kg/day PO (BID)
Protocol: BALB/c mice (2-3 months) were dosed with compound 4 in 2% ethanol at 10 mg/kg/day PO (BID). Mice were pre-dosed for 1 day (Day −1). Matrigel™ (BDBiosciences, California) was injected subcutaneously in the abdomen on Day 0, and the Matrigel™ plugs were harvested on Day 12.
Total RNA, which reflects cell number, was increased 1.6-fold (p<0.2) n=5/group in Matrigel™ plugs after treatment with compound 4.
The other half of the Matrigel™ plug was used for histology and CD31 immunostaining to analyze capillary density (CD31 is a marker for endothelial cells, which line the capillaries). A 1.3-fold increase in capillary density in (CD-31 immuno staining) (p<0.5) n=5/group was observed after treatment with compound 4.

[5] = test system: Matrigel plugs; bone marrow stem/progenitor cells; assay: Administration to aging Tert (+/-) mice: hemoglobin and total RNA in Matrigel plugs, number of bone marrow stem/progenitor cells; type: in vivo, Tert (+/-) mice on a C57BL/6 background; conditions: 10 mg/kg/day PO (BID)
Protocol: Aging Tert (+/−) mice on a C57BL/6 background (8-9 months) were dosed with compound 4 at 10 mg/kg/day PO (BID) in 2% ethanol. Mice were pre-dosed for 1 day (Day −1). Matrigel™ was injected subcutaneously in the abdomen on Day 0, and plugs were harvested on Day 12.
One half of the plug was analyzed for telomerase activity and hemoglobin content, which is indicative of blood vessel formation (RBC cell buffer extraction, followed by M-PER extraction). The other half of the plug was processed for histology.
The Matrigel™ plug has a 1.2-fold increase in hemoglobin levels (p<0.2) n=15/group for mice treated with compound 4.
Total RNA, which reflects cell number, was increased 1.5-fold (p<0.1) n−15/group in Matrigel™ plugs after treatment with compound 4.
Bone marrow stem and progenitor cells were purified using lineage depletion magnetic sorting technology (Miltenyi MACS columns).
The number of purified bone marrow stem/progenitor cells increased 1.5-fold (p<0.1) n=6/group in mice treated with compound 4.

Chain of telomerase (O14746 whole entry): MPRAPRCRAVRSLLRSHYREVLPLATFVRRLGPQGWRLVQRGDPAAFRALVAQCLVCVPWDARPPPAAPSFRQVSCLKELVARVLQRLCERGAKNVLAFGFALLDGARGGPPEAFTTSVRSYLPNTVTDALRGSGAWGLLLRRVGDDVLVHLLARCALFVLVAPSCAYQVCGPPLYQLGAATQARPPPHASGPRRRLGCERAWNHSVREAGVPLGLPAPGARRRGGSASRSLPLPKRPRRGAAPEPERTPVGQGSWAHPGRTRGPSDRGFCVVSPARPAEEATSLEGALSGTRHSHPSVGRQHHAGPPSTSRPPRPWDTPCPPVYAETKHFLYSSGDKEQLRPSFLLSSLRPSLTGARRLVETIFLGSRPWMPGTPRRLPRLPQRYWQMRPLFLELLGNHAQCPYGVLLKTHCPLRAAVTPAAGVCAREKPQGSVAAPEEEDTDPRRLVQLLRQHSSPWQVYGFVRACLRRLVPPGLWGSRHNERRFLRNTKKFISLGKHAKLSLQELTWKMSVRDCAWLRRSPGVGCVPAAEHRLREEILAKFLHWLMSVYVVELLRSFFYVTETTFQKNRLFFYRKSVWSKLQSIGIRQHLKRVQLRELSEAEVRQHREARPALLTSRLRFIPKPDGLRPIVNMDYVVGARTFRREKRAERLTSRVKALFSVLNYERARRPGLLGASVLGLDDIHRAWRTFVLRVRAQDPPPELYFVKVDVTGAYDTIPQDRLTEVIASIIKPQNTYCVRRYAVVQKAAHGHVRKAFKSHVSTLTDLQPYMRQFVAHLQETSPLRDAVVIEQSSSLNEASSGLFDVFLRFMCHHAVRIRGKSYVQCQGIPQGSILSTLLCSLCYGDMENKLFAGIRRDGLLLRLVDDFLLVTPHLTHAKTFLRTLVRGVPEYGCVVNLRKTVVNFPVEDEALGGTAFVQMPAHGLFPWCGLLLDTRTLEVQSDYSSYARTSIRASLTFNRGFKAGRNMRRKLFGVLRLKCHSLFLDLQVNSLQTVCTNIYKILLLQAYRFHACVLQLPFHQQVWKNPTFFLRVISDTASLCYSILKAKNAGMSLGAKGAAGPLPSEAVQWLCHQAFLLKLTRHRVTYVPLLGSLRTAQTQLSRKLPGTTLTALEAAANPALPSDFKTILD

CC(C)C(N)C(=O)OC1CCC23CC24CCC2(C)C(C5(C)CCC(C(C)(C)O)O5)C(O)CC2(C)C4CC(O)C3C1(C)C (stereo not drawn) [Compound 4, 2-(L)-Amino-3-methyl-butyric acid 6α,16β-dihydroxy-17-[5-(1-hydroxy-1-methyl-ethyl)-2-methyl-tetrahydro-furan-2-yl]-4,4,13,14-tetramethyl-tetradecahydro-cyclopropa[9,10]cyclopenta[a]phenanthren-3β-yl ester]
increase in calculated cell number (SAECs [1]): 4 × | increase of long-term replicative capacity (SAECs [1]; 0.004% ethanol): about 2 population doublings | Telomerase activity increase relative to the vehicle control (telomerase): 60-70% | BFU-E colonies (huCD34+ cells): 25.5 | CFU-E colonies (huCD34+ cells): 11 | CFU-GEMM colonies (huCD34+ cells): 5 | CFU-GM colonies (huCD34+ cells): 80 | Total colony counts (huCD34+ cells): 121.5 | more colony forming units than vehicle alone (huCD34+ cells): 17% | BFU-E colonies ([2]; Mouse 1, 100 nM): 50 | CFU-GEMM colonies ([2]; Mouse 1, 100 nM): 0 | CFU-GM colonies ([2]; Mouse 1, 100 nM): 111 | Total colony counts ([2]; Mouse 1, 100 nM): 161 | BFU-E colonies ([2]; Mouse 1, 500 nM): 38 | CFU-GEMM colonies ([2]; Mouse 1, 500 nM): 1 | CFU-GM colonies ([2]; Mouse 1, 500 nM): 124 | Total colony counts ([2]; Mouse 1, 500 nM): 162 | BFU-E colonies ([2]; Mouse 2, 100 nM): 31 | CFU-GEMM colonies ([2]; Mouse 2, 100 nM): 1 | CFU-GM colonies ([2]; Mouse 2, 100 nM): 90 | Total colony counts ([2]; Mouse 2, 100 nM): 121 | BFU-E colonies ([2]; Mouse 2, 500 nM): 29 | CFU-GEMM colonies ([2]; Mouse 2, 500 nM): 2 | CFU-GM colonies ([2]; Mouse 2, 500 nM): 98 | Total colony counts ([2]; Mouse 2, 500 nM): 129 | increased proliferation (SAECs [3]): about 50% | BFU-E colonies ([4]; 100 nM): 22 | CFU-E colonies ([4]; 100 nM): 43 | CFU-GEMM colonies ([4]; 100 nM): 3 | Total colony counts ([4]; 100 nM): 68 | BFU-E colonies ([4]; 500 nM): 27 | CFU-E colonies ([4]; 500 nM): 48 | CFU-GEMM colonies ([4]; 500 nM): 1 | Total colony counts ([4]; 500 nM): 77 | Total RNA (reflects cell number) increase in Matrigel plugs (Matrigel plugs; Day 12, p<0.2): 1.6 fold | increase in capillary density (CD-31 immuno staining) (Matrigel plugs; Day 12, p<0.5): 1.3 fold | Total RNA (reflects cell number) increase in Matrigel plugs ([5]; p<0.1): 1.5 fold | increase in number of purified bone marrow stem/progenitor cells ([5]; p<0.1): 1.5 fold | increase in hemoglobin levels in the Matrigel plug ([5]; p<0.2): 1.2 fold
